{"source": "patent US7230025B2", "about": "“Pyrazole derivatives” (Pfizer, Inc., priority 2002, dated 2007)", "target": "T1, HIV-1 reverse transcriptase (Human immunodeficiency virus type 1 group M subtype B, UniProt P04585)", "T1 construct": "purified recombinant HIV-1 reverse transcriptase (RT, EC, 2.7.7.49) obtained by expression in Escherichia Coli; made in house; host or cells: Escherichia coli", "assay": "Inhibition of HIV-1 Reverse Transcriptase Enzyme", "type": "biochemical", "text": "The activity of the compounds of the invention as reverse transcriptase inhibitors may be measured using the following assay.\nInhibition of HIV-1 Reverse Transcriptase Enzyme\nUsing purified recombinant HIV-1 reverse transcriptase (RT, EC, 2.7.7.49) obtained by expression in Escherichia Coli, a 96-well plate assay system is established for assaying a large number of samples using either the Poly(rA)-oligo(dT) Reverse Transcriptase [3H]-SPA enzyme assay system (Amersham NK9020) or the [3H]-flashplate enzyme assay system (NEN-SMP 103) and following the manufacturer's recommendations. The compounds are dissolved in 100% DMSO and diluted with the appropriate buffer to a 5% final DMSO concentration. The inhibitory activity is expressed in percent inhibition relative to DMSO control.", "note": "Where two headings read alike, the source gives them in different places.", "data": [{"molecule": "CCc1nn(C)c(Oc2ccccn2)c1Oc1cc(C#N)cc(C#N)c1", "note": "[Example 1, 5-[3-Ethyl-1-methyl-5-(pyridin-2-yloxy)-1H-pyrazol4-yloxy]-isophthalonitrile]", "values": [{"measurement": "IC50", "setting": "purified recombinant HIV-1 RT expressed in Escherichia Coli, [3H]-SPA or [3H]-flashplate enzyme assay, 5% final DMSO, read-out: IC50", "value": 5400, "unit": "nM"}]}, {"molecule": "CCc1nn(C)c(Oc2ncc(Oc3ccc(OC)cc3)cn2)c1Oc1cc(C#N)cc(C#N)c1", "note": "[Example 6]", "values": [{"measurement": "IC50", "value": 391, "unit": "nM"}]}]}
